Structures are written as SMILES. Active and inactive are the calls of the source. The rule behind the calls is not given here.

For orientation: IC50 means the concentration that gives 50% inhibition.

The experiment has as its system Leishmania donovani growth inhibition. Put plainly: Leishmania donovani growth inhibition (AID 1159560).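 Note: parasites exposed to compound for 72 h before the viability read.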
For the compound `O=C(NC(c1ccc(Cl)cc1)c1cnccn1)C1CCN(C(=O)Nc2cccc(C(F)(F)F)c2)CC1` (stereo not given), the IC50 is 20 µM. For the compound `COCc1cc(Nc2ccccc2)nc(-c2ccccn2)n1`, the IC50 was 7.9 µM.

On to `CC(c1ccccn1)N(C)Cc1nc2ccccc2n1C(C)C` (stereo not given), for which the IC50 was 10 µM.

As to `COc1ccc(-c2cnc(NC(=O)c3ccc(F)cc3)n2C)cc1`, the IC50 was 3.2 µM. As to `CCC(=O)Nc1ccc(-c2nc3ccc(Cl)cc3[nH]2)cc1`, the IC50 was > 50 µM (inactive). As for `Oc1c(-c2n[nH]c(CCc3ccccc3)n2)ncc2cccnc12`, the IC50 was 0.32 µM. As to `Cn1nccc1-c1cc(OC(CN)c2ccccc2)cnc1-c1ccco1` (stereo not given), the IC50 was > 50 µM (inactive). On to `CNc1nc(C)nc(N2CCc3cc(C(=O)NCc4ccc(-c5nccn5C)cc4Cl)ccc32)n1`, for which the IC50 was 5 µM. `O=C(NCCc1nc(-c2ccc(F)c(F)c2)n[nH]1)C1CCCCC1`: the IC50 was > 50 µM (inactive).

Consider `CC(c1cc(Cl)cc(Cl)c1)N(C)c1ncc2c(N)nc(N)nc2n1` (stereo not given), for which the IC50 was 0.79 µM. Turning to `COc1cc2c(cc1OC)[C@H]1[C@@H](C)c3ccc(OC)c(OC)c3CN1CC2`, the IC50 is 2.5 µM.

Take `Cc1ccc(Nc2nc(-c3ccccn3)cc(N3CCCC(O)C3)n2)cc1` (stereo not given): the IC50 is 2 µM. Turning to `Cn1nc([N+](=O)[O-])nc1N1CCCCC1`, the IC50 is > 50 µM (inactive). Next, `O=C(COc1ncnc2cc([N+](=O)[O-])ccc12)NC(=O)NC1CCCCC1`: > 50 µM (inactive); `OCCCNc1nc(Nc2ccncc2)nc2ccccc12`: 40 µM; `Cc1ccc2ccc(C(Nc3ccccn3)c3cccnc3)c(O)c2n1` (stereo not given): 0.4 µM. Consider `CNC(=O)C1Cc2ccccc2N1C(=O)Cc1ccccc1` (stereo not given), for which the IC50 is > 50 µM (inactive). In the case of `COc1cccc(-c2cc(C(F)(F)F)nc(-n3ccc([N+](=O)[O-])n3)n2)c1` it was > 50 µM (inactive); in that of `c1cc(-c2ncc(-c3ccn[nH]3)s2)ccn1`, > 50 µM (inactive); in that of `COc1ccc2nc(N(Cc3cccnc3)C(=O)C3CCC3)sc2c1`, 13 µM.

In the case of `CN(C)Cc1ccc(N2CCC(NS(=O)(=O)c3ccc(Cl)cc3)CC2)cc1`, the IC50 is 40 µM.

For the compound `COc1ccc([N+](=O)[O-])cc1NC(=O)Nc1cccc(Cl)c1`, the IC50 is > 50 µM (inactive). Next, `COc1ccc(Oc2ccc(C(C)N(C)c3ncc4c(N)nc(N)nc4n3)cc2)cc1` (stereo not given): 0.04 µM; `CCN(Cc1nc2ccc(C(=O)N3CCN(c4ncccn4)CC3)cc2[nH]1)C1CCCc2cccnc21` (stereo not given): 5 µM.

Consider `O=C(Nc1cccc(F)c1)N1CCC(Oc2cccc(-c3cccnc3)c2)CC1`, for which the IC50 was 0.5 µM. Take `CC(Cn1ccnc1)NC(=O)COc1ccc(Cl)c(Cl)c1` (stereo not given): the IC50 is > 50 µM (inactive). Next, `Cc1c(Nc2cc(C3CC3)[nH]n2)ccc(C#N)c1Cl`: 20 µM.

As for `COc1ncc(-c2ccc3nccc(-c4ccncc4)c3c2)cc1NS(=O)(=O)C1CC1`, the IC50 was 1.3 µM. Next, `O=c1cc(NCCCNCc2cc(C(F)(F)F)cs2)[nH]c2ccccc12`: > 50 µM (inactive); `O=c1[nH]cnc2c([C@@H]3O[C@H](CO)[C@@H](O)[C@H]3O)[nH]nc12`: 0.4 µM; `Nc1nc(-c2ccccn2)nc(-n2nc(-c3ccccc3)cc2N)n1`: 2 µM.

With `Nc1cc(-c2ccc3ncnc(N4CCOCC4)c3c2)cnc1N`, the IC50 was 4 µM. Next, `O=C(NCCc1cccnc1)c1csc(-c2ccccc2)n1`: > 50 µM (inactive); `Nc1nc(-c2ccccn2)nc(N)c1Cc1c(F)cccc1Cl`: 2.5 µM. As to `CCn1c(-c2nonc2N)nc2c([C@@H](C)O)ncc(O[C@H](CN)c3ccccc3)c21`, the IC50 was 20 µM.

For `Cc1nc(N2CC(C)OC(C)C2)sc1C(=O)Nc1ccc2c(c1)OCO2` (stereo not given), the IC50 was 6.3 µM.

Consider `N#CN1CC[C@@H](NC(=O)Nc2ccccc2Oc2ccccc2)C1`, for which the IC50 was 3.2 µM. In the case of `CCCCn1c(=O)c2c(N)onc2n(CCCC)c1=O`, the IC50 is > 50 µM (inactive). In the case of `O=C(c1cccc(Cl)c1Cl)N1CCn2c1nc(-c1ccncc1)cc2=O` it was 50 µM. Next, `CCCn1c(NC(=O)Cc2ccc(Cl)cc2)nc2ccccc21`: 40 µM; `CCC(CC)C(=O)Nc1cccc(C(=O)Nc2nnc(C3CCCCC3)s2)c1`: > 50 µM (inactive); `Cn1ccnc1-c1nc(NCc2ccccc2Cl)cc(C2CC2)n1`: 1.6 µM. As to `CCOc1ccc(Nc2ccc(S(=O)(=O)N3CCN(C)CC3)cc2[N+](=O)[O-])cc1OCC`, the IC50 was 0.79 µM. Next, `CN1CCC(N(C)c2nccc(N3CCN(C(=O)c4cccc(-c5cccnc5)c4)CC3)n2)CC1`: > 50 µM (inactive); `O=C(Cn1cnc2cc([N+](=O)[O-])ccc2c1=O)NCCc1ccc(Cl)cc1Cl`: > 50 µM (inactive).

On to `Cc1cccnc1NC(=O)c1cccc(OCc2c(C)noc2C)c1`, for which the IC50 is > 50 µM (inactive). In the case of `CS(=O)(=O)c1ccc(Nc2nccc(-c3cnn4ncccc34)n2)cc1`, the IC50 was 0.79 µM. In the case of `O=C(CSc1ccc(F)cc1)N[C@@H](Cc1cnc[nH]1)C(=O)NCCc1ccccc1` it was > 50 µM (inactive); in that of `COc1ccc(Cc2nc(-c3ncc4cccnc4c3O)n[nH]2)cc1OC`, 0.32 µM; in that of `C[C@@H](Oc1cc(-n2cnc3ccc(CC(O)CO)cc32)sc1C(N)=O)c1ccccc1Cl` (stereo not given in full), 25 µM. In the case of `Cc1ccccc1CNc1cc(C2CC2)nc(-c2nccn2C)n1` it was 1.6 µM. Turning to `O=C(Cn1cnc2c(-c3ccccc3)csc2c1=O)N1CCCCC1`, the IC50 is > 50 µM (inactive). In the case of `COc1ccc(-c2cnc(NC(=O)c3cc(-c4ccccn4)n[nH]3)n2C)cc1` it was 4 µM; in that of `O=C(N1CCc2ccccc2CC1)C1(C(=O)N2CCC(n3c(=O)[nH]c4ncccc43)CC2)CC1`, > 50 µM (inactive); in that of `Cc1[nH]nc(Nc2ccnc3[nH]ccc23)c1C`, > 50 µM (inactive). In the case of `COc1ccc(OC)c(S(=O)(=O)N(Cc2c(F)cccc2F)[C@@H]2CCN(C#N)C2)c1` it was 16 µM; in that of `N#Cc1cnc(Nc2cccc(CCN3CCOCC3)c2)nc1Nc1ccccc1C(N)=O`, 2.5 µM; in that of `COc1ccc2ncc(=O)n(CCN3CCC(NCc4ccc(-c5cccs5)cc4)CC3)c2n1`, 1.6 µM.

`CCNc1cc(-c2ccccn2)nc(Nc2ccccc2)n1`: the IC50 was 2.5 µM. In the case of `O=C(Nc1nc2ccccc2[nH]1)c1c(O)c2cccc3c2n(c1=O)CC3`, the IC50 was 2.5 µM. Next, `CCOc1ccc(NC(=O)c2ccc(NC(=O)NC3CCCCC3)cc2)cc1`: > 50 µM (inactive). In the case of `CN(Cc1nnnn1C1CCN(Cc2ccc(-n3ccnc3)cc2)CC1)c1ccc(F)cc1F` it was > 50 µM (inactive); in that of `O=C(Nc1ccc(S(=O)(=O)N2CCCC2)cc1)c1ccc([N+](=O)[O-])s1`, 7.9 µM; in that of `Cc1cnc(Nc2cc(Cc3ccccc3)nc(NC3CCC(O)CC3)n2)s1` (stereo not given), 0.79 µM. Turning to `c1ccc(CNc2cccc3ccncc23)cc1`, the IC50 is 10 µM. With `O=C(Nc1n[nH]c(-c2ccccn2)n1)C1CC1c1ccccc1` (stereo not given), the IC50 was 13 µM.

For the compound `O=C(NCC(c1cccs1)N1CCOCC1)c1ccc([N+](=O)[O-])o1` (stereo not given), the IC50 is 32 µM.

Regarding `COc1ccc(CNc2nsc3ccccc23)cc1OC`, the IC50 was 3.2 µM. Consider `COc1ccc([N+](=O)[O-])cc1NC(=O)c1cc(Cl)ccc1O`, for which the IC50 was 7.9 µM. Consider `Oc1c(-c2n[nH]c(Cc3ccc(Cl)cc3)n2)ncc2cccnc12`, for which the IC50 was 0.25 µM. As for `O=[N+]([O-])c1ccc(C2=CC(c3ccccc3)=NCCN2)cc1`, the IC50 is > 50 µM (inactive). For `Clc1cc(Br)ccc1OCCCCn1ccnc1`, the IC50 is 0.13 µM. Next, `O=C(NCCc1csc(-c2cccc(F)c2)n1)c1ccco1`: > 50 µM (inactive); `Cc1nc2c(-c3cccs3)c(C)nn2c(NCCO)c1C`: > 50 µM (inactive); `O=C(c1cnn(-c2ccccc2)n1)N1CCCC(n2ccnc2)C1` (stereo not given): 7.9 µM. Turning to `Cc1[nH]n2c(=O)c3c(nc2c1-c1ccc(F)cc1)CCCC3`, the IC50 was 1.3 µM. In the case of `CN(C)Cc1ccc(-c2ccc(S(=O)(=O)NCC3CCCO3)c(F)c2)cc1` (stereo not given) it was > 63 µM (inactive); in that of `CNC(=O)C1Cc2ccccc2N1C(=O)COc1cccc(OC)c1` (stereo not given), > 50 µM (inactive); in that of `O=C(Nc1nc2ccccc2[nH]1)c1ccc2nc[nH]c2c1`, 2.5 µM. In the case of `CCCn1c(NC(=O)CCn2cc(Br)cn2)nc2ccccc21`, the IC50 is 10 µM. Next, `Cc1cc(C)n(-c2nc(NC(C)C)nc(NC(C)(C)C)n2)n1`: 3.2 µM; `Cc1nnnn1-c1cccc(C(=O)N2CCC[C@@]3(C)c4ncncc4CCC23)c1` (stereo not given in full): 0.4 µM. As for `c1ccc(Nc2nc(-c3ccccn3)cc(N3CCOCC3)n2)cc1`, the IC50 is 6.3 µM.

Consider `Nc1nc(-c2ccccc2)cc(-c2nc3ncccc3[nH]2)n1`, for which the IC50 is 4 µM. Next, `O=C(c1cccc(Nc2ncc(-c3ccc4c(c3)OCO4)cn2)c1)N1CCOCC1`: 2 µM; `O=C(CCCn1cnc([N+](=O)[O-])n1)Nc1cccc(Cl)c1`: > 50 µM (inactive); `O=C(Nc1nc(-c2ccc(F)cc2)cs1)c1ccc([N+](=O)[O-])s1`: 0.63 µM. Take `CN(CCOc1ccc(Cl)cc1)Cc1nc(N)nc(N(C)C)n1`: the IC50 is 16 µM. In the case of `COc1cc(OC)cc(C(=O)N[C@@H](CC(C)C)C(=O)NC2(C#N)CC2)c1`, the IC50 is > 50 µM (inactive). Next, `CN(Cc1ccc(C(N)=O)cc1)C(c1ccc(F)cc1)c1cccnc1` (stereo not given): > 50 µM (inactive). Next, `CC1CN(Cc2ccc(C#N)cc2)CCN1c1ccc(NC(=O)c2ccccc2F)cc1` (stereo not given): 40 µM; `O=C(Nc1ccc(-c2nc3ccccc3c(=O)[nH]2)cc1)c1cccs1`: > 50 µM (inactive). In the case of `CCCc1nc2nc(N)nc(N)c2cc1CC` it was 2 µM. In the case of `COc1ccnc2[nH]cc(-c3cc(C(=O)N[C@H](CO)c4ccccc4)co3)c12`, the IC50 was 25 µM. In the case of `CCS(=O)(=O)Nc1ccc(C2=NN(C(=O)c3cccs3)C(c3ccccc3OC)C2)cc1` (stereo not given), the IC50 was 1.3 µM.
